Experimental data from patent US20060194837A1, “Tetrahydroisoquinoline compounds” (priority 2004, published 2006).
Read-outs that look alike come from different tables or passages of the source.

Key:
[1] = biological target: T1, Rat SERT (Rattus norvegicus, UniProt P31652); experiment: Rat brain SERT binding ([3H]-citalopram displacement); conditions: rat brain membranes without cerebellum, 0.6 nM [3H]-citalopram, 60 min at 25° C.
T1 construct: A rat brain without cerebellum (Zivic Laboratories, Inc.—Pittsburgh, Pa.) was homogenized; tissue Zivic Laboratories, Inc; host or cells: rat brain without cerebellum, membranes
T1 sequence (P31652 whole entry): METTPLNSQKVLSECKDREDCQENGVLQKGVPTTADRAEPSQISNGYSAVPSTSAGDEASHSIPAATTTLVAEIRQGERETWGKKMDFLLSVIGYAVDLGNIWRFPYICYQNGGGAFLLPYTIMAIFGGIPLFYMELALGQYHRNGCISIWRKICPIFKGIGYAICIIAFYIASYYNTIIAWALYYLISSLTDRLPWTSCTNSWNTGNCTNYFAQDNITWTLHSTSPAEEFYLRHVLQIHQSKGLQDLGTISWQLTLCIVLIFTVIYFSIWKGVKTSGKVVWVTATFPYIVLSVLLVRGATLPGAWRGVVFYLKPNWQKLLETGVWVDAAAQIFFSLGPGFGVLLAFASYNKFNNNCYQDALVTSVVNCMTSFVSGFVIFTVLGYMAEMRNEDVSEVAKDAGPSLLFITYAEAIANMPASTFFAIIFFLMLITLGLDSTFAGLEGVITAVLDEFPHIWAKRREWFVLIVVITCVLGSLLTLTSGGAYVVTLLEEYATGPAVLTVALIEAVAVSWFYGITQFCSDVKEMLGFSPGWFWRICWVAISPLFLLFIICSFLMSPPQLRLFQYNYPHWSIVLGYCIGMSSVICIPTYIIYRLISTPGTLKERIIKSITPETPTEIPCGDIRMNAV
Method: The supernatant was removed and re-centrifuged at 15,000 rpm for 30 min. […] Membranes were incubated with 0.6 nM [^3H]-Citalopram plus/minus test compounds for 60 min at 25° C. and harvested by rapid filtration over GF/C glass fiber filters (pretreated with 0.3% polyethylenimine) followed by four washes with ice-cold buffer.

[2] = biological target: T2, human H3 receptor (Homo sapiens, UniProt Q9Y5N1); experiment: H3 receptor binding (N-[3H]-α-methylhistamine displacement); conditions: membranes of SK-N-MC cells expressing cloned human H3 receptor, 0.8 nM N-[3H]-α-methylhistamine, 60 min at 25° C.
T2 construct: expressed in transfected cells
T2 sequence (Q9Y5N1 whole entry): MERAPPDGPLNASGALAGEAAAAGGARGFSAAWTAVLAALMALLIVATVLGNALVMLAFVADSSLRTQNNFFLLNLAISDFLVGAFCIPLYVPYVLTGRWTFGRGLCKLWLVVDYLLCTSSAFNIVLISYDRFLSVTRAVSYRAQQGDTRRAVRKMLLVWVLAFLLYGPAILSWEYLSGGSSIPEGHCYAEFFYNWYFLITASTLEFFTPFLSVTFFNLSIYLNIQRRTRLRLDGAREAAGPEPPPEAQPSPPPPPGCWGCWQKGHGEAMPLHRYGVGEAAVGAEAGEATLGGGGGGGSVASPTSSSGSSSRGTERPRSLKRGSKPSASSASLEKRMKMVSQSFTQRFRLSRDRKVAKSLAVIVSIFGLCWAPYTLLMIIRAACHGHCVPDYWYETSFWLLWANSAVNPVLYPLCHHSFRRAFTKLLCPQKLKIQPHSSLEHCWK

SMILES	Ki ([1]; read-out: Rat SERT Ki)	Ki [2]	Ki ([1]; Rat SERT Ki (nM))
COc1ccc(C2CN(C)Cc3cc(OCCCN4CCOCC4)c(C)cc32)cc1F (centres unmarked) [Example 267, 4-(3-Fluoro-4-methoxy-phenyl)-2,6-dimethyl-7-(3-morpholin-4-yl-propoxy)-1,2,3,4-tetrahydro-isoquinoline]	25 nM	12 nM	–
COc1ccc(C2CN(C)Cc3cc(OCCCN4CC(C(c5ccccc5)c5ccccc5)C4)ccc32)cc1 (centres unmarked) [Example 137, 7-[3-(3-Benzhydryl-azetidin-1-yl)-propoxy]-4-(4-methoxy-phenyl)-2-methyl-1,2,3,4-tetrahydro-isoquinoline]	77 nM	5000 nM	–
COc1ccc(C2CN(C)Cc3cc(OCCCNC(C)C)ccc32)cc1 (centres unmarked) [Example 230, Isopropyl-{3-[4-(4-methoxy-phenyl)-2-methyl-1,2,3,4-tetrahydro-isoquinolin-7-yloxy]-propyl}-amine]	1 nM	17 nM	–
COc1ccc(C2CN(C)Cc3cc(OCCCN4CC(F)(F)C4)ccc32)cc1 (centres unmarked) [Example 182, 7-[3-(3,3-Difluoro-azetidin-1-yl)-propoxy]-4-(4-methoxy-phenyl)-2-methyl-1,2,3,4-tetrahydro-isoquinoline]	2 nM	59 nM	–
COc1ccc(C2CN(C)Cc3cc(OCCCN4CCOC[C@@H]4C)ccc32)cc1F (stereo partly drawn) [Example 221, 4-(3-Fluoro-4-methoxy-phenyl)-2-methyl-7-[3-(3S-methyl-morpholin-4-yl)-propoxy]-1,2,3,4-tetrahydro-isoquinoline]	11 nM	9 nM	–
C=CCN1CCN(CCCOc2ccc3c(c2)CN(C)CC3c2ccc(OC)cc2)CC1 (centres unmarked) [Example 206, 7-[3-(4-Allyl-piperazin-1-yl)-propoxy]-4-(4-methoxy-phenyl)-2-methyl-1,2,3,4-tetrahydro-isoquinoline]	3 nM	37 nM	–
COc1ccc(C2CN(C)Cc3cc(OCC4CCN(C5CCC5)CC4)ccc32)c(F)c1 (centres unmarked) [Example 113, 7-(1-Cyclobutyl-piperidin-4-ylmethoxy)-4-(2-fluoro-4-methoxy-phenyl)-2-methyl-1,2,3,4-tetrahydro-isoquinoline]	10 nM	8 nM	–
CN1Cc2cc(OCCCN3CCC(F)CC3)ccc2C(c2ccc(-n3cccn3)nc2)C1 (centres unmarked) [Example 194, 7-[3-(4-Fluoro-piperidin-1-yl)-propoxy]-2-methyl-4-(6-pyrazol-1-yl-pyridin-3-yl)-1,2,3,4-tetrahydro-isoquinoline]	7 nM	1 nM	–
COc1ccc(C2CN(C)Cc3cc(OCCCN4CCOC(CO)C4)ccc32)cc1 (centres unmarked) [Example 184, (4-{3-[4-(4-Methoxy-phenyl)-2-methyl-1,2,3,4-tetrahydro-isoquinolin-7-yloxy]-propyl}-morpholin-2-yl)-methanol]	1 nM	2 nM	–
COCCNCCCOc1ccc2c(c1)CN(C)CC2c1ccc(OC)cc1 (centres unmarked) [Example 225, (2-Methoxy-ethyl)-{3-[4-(4-methoxy-phenyl)-2-methyl-1,2,3,4-tetrahydro-isoquinolin-7-yloxy]-propyl}-amine]	1 nM	46 nM	–
CN1Cc2cc(OCCCN3CCC(F)CC3)ccc2C(c2cc(Cl)cc(Cl)c2)C1 (centres unmarked) [Example 56, 4-(3,5-Dichloro-phenyl)-7-[3-(4-fluoro-piperidin-1-yl)-propoxy]-2-methyl-1,2,3,4-tetrahydro-isoquinoline]	42 nM	20 nM	–
COc1ccc(C2CN(C)Cc3cc(OC[C@H]4CN(C5CC5)CCO4)ccc32)cc1 (single isomer, unassigned) [Example 261B, 7-(4-Cyclopropyl-morpholin-2R-ylmethoxy)-4-(4-methoxy-phenyl)-2-methyl-1,2,3,4-tetrahydro-isoquinoline]	17 nM	64 nM	–
COc1ccc(C2CN(C)Cc3cc(OCCC4CCCN4C)ccc32)cc1 (mixture of isomers) [Example 240, 4-(4-Methoxy-phenyl)-2-methyl-7-[2-(1-methyl-pyrrolidin-2-yl)-ethoxy]-1,2,3,4-tetrahydro-isoquinoline]	3 nM	4 nM	–
COc1ccc(C2CN(C)Cc3cc(OCC4CCNCC4)ccc32)cc1Cl (centres unmarked) [Example 79, 4-(3-Chloro-4-methoxy-phenyl)-2-methyl-7-(piperidin-4-ylmethoxy)-1,2,3,4-tetrahydro-isoquinoline]	5 nM	183 nM	–
COc1cccc(C2CN(C)Cc3cc(OC4CCN(C(C)C)CC4)ccc32)c1 (centres unmarked) [Example 98, 7-(1-Isopropyl-piperidin-4-yloxy)-4-(3-methoxy-phenyl)-2-methyl-1,2,3,4-tetrahydro-isoquinoline]	11 nM	2 nM	–
COc1ccc(C2CN(C(C)c3ccccc3)Cc3cc(OCCCN4CCOCC4)ccc32)cc1 (single isomer, unassigned) [Example 75A, 4-(4-Methoxy-phenyl)-7-(3-morpholin-4-yl-propoxy)-2-(1-phenyl-ethyl)-1,2,3,4-tetrahydro-isoquinoline]	2000 nM	7 nM	–

SMILES	Ki ([1]; read-out: Rat SERT Ki)	Ki [2]	Ki ([1]; Rat SERT Ki (nM))
COc1ccc(C2CN(C)Cc3cc(OCCCN4CCOC[C@@H]4CO)ccc32)cc1 (mixture of isomers) [Example 183A, (4-{3-[4-(4-Methoxy-phenyl)-2-methyl-1,2,3,4-tetrahydro-isoquinolin-7-yloxy)-propyl}-morpholin-3S-yl)-methanol]	1 nM	6 nM	–
COc1ccc(C2CN(C)Cc3cc(OC[C@@H]4CN(C5CC5)CCO4)ccc32)cc1 (mixture of isomers) [Example 260, 7-(4-Cyclopropyl-morpholin-2S-ylmethoxy)-4-(4-methoxy-phenyl)-2-methyl-1,2,3,4-tetrahydro-isoquinoline]	29 nM	3 nM	–
COc1ccc(C2CN(C)Cc3cc(OCC4CCN(C(=O)C(F)(F)F)CC4)ccc32)cc1 (centres unmarked) [Example 122, 2,2,2-Trifluoro-1-{4-[4-(4-methoxy-phenyl)-2-methyl-1,2,3,4-tetrahydro-isoquinolin-7-yloxymethyl]-piperidin-1-yl}-ethanone]	26 nM	372 nM	–
COc1ccc(C2CN(C)Cc3cc(OCCCN4CCC(F)CC4)ccc32)cn1 (centres unmarked) [Example 193, 7-[3-(4-Fluoro-piperidin-1-yl)-propoxy]-4-(6-methoxy-pyridin-3-yl)-2-methyl-1,2,3,4-tetrahydro-isoquinoline]	5 nM	3 nM	–
CN1Cc2cc(OCCCN3CCC(F)CC3)ccc2C(c2ccc(OC(F)(F)F)cc2)C1 (centres unmarked) [Example 49, 7-[3-(4-Fluoro-piperidin-1-yl)-propoxy]-2-methyl-4-(4-trifluoromethoxy-phenyl)-1,2,3,4-tetrahydro-isoquinoline]	14 nM	18 nM	–
CN1Cc2cc(OCCCN3CCC(F)CC3)ccc2C(c2ccc(Cl)cc2Cl)C1 (centres unmarked) [Example 54, 4-(2,4-Dichloro-phenyl)-7-[3-(4-fluoro-piperidin-1-yl)-propoxy]-2-methyl-1,2,3,4-tetrahydro-isoquinoline]	–	16 nM	32 nM
COc1ccc(C2CN(Cc3ccccc3)Cc3cc(OCCCN4CCCCC4)ccc32)cc1 (centres unmarked) [Example 65, 2-Benzyl-4-(4-methoxy-phenyl)-7-(3-piperidin-1-yl-propoxy)-1,2,3,4-tetrahydro-isoquinoline]	3000 nM	7 nM	–
COc1ccc(C2CN(C)Cc3cc(OCC4CCN(C5CCC5)CC4)ccc32)cc1Cl (centres unmarked) [Example 106, 4-(3-Chloro-4-methoxy-phenyl)-7-(1-cyclobutyl-piperidin-4-ylmethoxy)-2-methyl-1,2,3,4-tetrahydro-isoquinoline]	25 nM	6 nM	–
CCCN1CCC(COc2ccc3c(c2)CN(C)CC3c2cccc(OC)c2)CC1 (centres unmarked) [Example 93, 4-(3-Methoxy-phenyl)-2-methyl-7-(1-propyl-piperidin-4-ylmethoxy) 1,2,3,4-tetrahydro-isoquinoline]	22 nM	6 nM	–
COc1ccc(C2CN(C)Cc3cc(OCCCNC4CCOCC4)ccc32)cc1 (centres unmarked) [Example 223, {3-[4-(4-Methoxy-phenyl)-2-methyl-1,2,3,4-tetrahydro-isoquinolin-7-yloxy]-propyl}-(tetrahydro-pyran-4-yl)-amine]	5 nM	59 nM	–
CCN1CCC(COc2ccc3c(c2)CN(C)CC3c2ccc(OC)cc2)CC1 (centres unmarked) [Example 87, 7-(1-Ethyl-piperidin-4-ylmethoxy)-4-(4-methoxy-phenyl)-2-methyl-1,2,3,4-tetrahydro-isoquinoline]	4 nM	2 nM	–
COc1cccc(C2CN(C)Cc3cc(OC4CCN(C5CCCC5)CC4)ccc32)c1 (centres unmarked) [Example 101, 7-(1-Cyclopentyl-piperidin-4-yloxy)-4-(3-methoxy-phenyl)-2-methyl-1,2,3,4-tetrahydro-isoquinoline]	18 nM	2 nM	–
COc1ccc(C2CN(C)Cc3cc(OCCCN4CCN(c5ccccc5O)CC4)ccc32)cc1 (centres unmarked) [Example 203, 2-(4-{3-[4-(4-Methoxy-phenyl)-2-methyl-1,2,3,4-tetrahydro-isoquinolin-7-yloxy]-propyl}-piperazin-1-yl)-phenol]	8 nM	504 nM	–
COc1ccc(C2CN(C)Cc3cc(OCCCNC4CC4)ccc32)cc1 (centres unmarked) [Example 229, Cyclopropyl-{3-[4-(4-methoxy-phenyl)-2-methyl-1,2,3,4-tetrahydro-isoquinolin-7-yloxy]-propyl}-amine]	2 nM	18 nM	–
COc1ccc(C2CN(C)Cc3cc(OC4CCNCC4)ccc32)cc1F (centres unmarked) [Example 151, 4-(3-Fluoro-4-methoxy-phenyl)-2-methyl-7-(piperidin-4-yloxy)-1,2,3,4-tetrahydro-isoquinoline]	3 nM	119 nM	–
